One assay deals with T1, viral kinase pUL-97 (Human cytomegalovirus, UniProt P16788).
T1 construct: The pUL-97 gene was cloned into a baculovirus vector; GST (glutathione S-transferase) (N); made in house; host or cells: Sf9 insect cells, baculovirus
T1 sequence (P16788 whole entry): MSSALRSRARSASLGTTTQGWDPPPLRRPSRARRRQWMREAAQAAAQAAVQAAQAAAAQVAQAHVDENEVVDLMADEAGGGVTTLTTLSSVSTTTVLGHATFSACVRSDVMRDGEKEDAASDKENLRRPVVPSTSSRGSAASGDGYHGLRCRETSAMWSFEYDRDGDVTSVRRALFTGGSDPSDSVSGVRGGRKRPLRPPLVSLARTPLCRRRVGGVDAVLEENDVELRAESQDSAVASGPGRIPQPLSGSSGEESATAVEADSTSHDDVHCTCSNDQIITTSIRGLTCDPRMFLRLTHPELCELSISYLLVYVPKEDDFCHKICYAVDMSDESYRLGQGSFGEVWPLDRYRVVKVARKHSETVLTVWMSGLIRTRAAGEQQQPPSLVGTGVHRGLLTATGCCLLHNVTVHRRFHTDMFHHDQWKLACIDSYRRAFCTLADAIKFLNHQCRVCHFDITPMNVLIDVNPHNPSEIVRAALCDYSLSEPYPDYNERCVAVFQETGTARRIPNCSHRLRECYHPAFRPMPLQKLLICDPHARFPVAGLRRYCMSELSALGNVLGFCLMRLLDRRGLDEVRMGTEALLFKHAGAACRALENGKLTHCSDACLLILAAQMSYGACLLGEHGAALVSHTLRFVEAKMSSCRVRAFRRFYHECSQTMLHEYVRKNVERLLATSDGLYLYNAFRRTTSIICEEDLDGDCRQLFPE
In words: UL97 kinase assay on Immobilon plate. It is filed as biochemical. The following applies: inhibition of UL 97 kinase activity; class by IC50 / % inhibition at 10 μM or 100 μM; read-out: Activity Class [A, B, C]. The method in brief: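 Compound was titrated into a radiometric reaction of Sf9-expressed GST-UL97 kinase, incubated 1 h at 30 °C in Tris-HCl pH 7.5/MnCl2/DTT buffer before EDTA stop. MBP substrate and ATP (3 μM in the added assay buffer) were supplied with γ-[33P]ATP. Labelled product bound to Immobilon filter was washed and counted by scintillation.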
For the compound `OCc1ccccc1-c1cncc(N2CCN(c3ccc(F)cc3F)CC2)n1` [compound 202, {2-[4-(2,4-Difluoro-phenyl)-3,4,5,6-tetrahydro-2H-[1,2′]bipyrazinyl-6′-yl]-phenyl}-methanol], the IC50 was 10 to 100 µM.
Take `Cc1ccc(N2CCN(c3cncc(-c4ccc(CO)cc4)n3)CC2)c(C)c1` [compound 321, {4-[4-(2,4-Dimethyl-phenyl)-3,4,5,6-tetrahydro-2H-[1,2′]bipyrazinyl-6′-yl]-phenyl}-methanol]: the IC50 lay in the range of 10 to 100 µM.
For the compound `Cc1cccc(N2CCN(c3cncc(-c4ccc(C(N)=O)cc4)n3)CC2C)c1` (stereo not shown) [compound 299, 4-(3-Methyl-4-m-tolyl-3,4,5,6-tetrahydro-2H-[1,2′]bipyrazinyl-6′-yl)-benzamide], the IC50 was 1 to 10 µM.
`CSc1ccc(-c2cncc(N3CCN(c4ccc(C)c(C)c4)CC3)n2)cc1` [compound 359, 4-(3,4-Dimethyl-phenyl)-6′-(4-methylsulfanyl-phenyl)-3,4,5,6-tetrahydro-2H-[1,2′]bipyrazinyl]: the IC50 fell in the range of 1 to 10 µM.
As to `Cc1nc(C)c(N2CCN(c3ccncc3)CC2)nc1-c1cc2ccccc2s1` [compound 373, 6′-Benzo[b]thiophen-2-yl-3′,5′-dimethyl-4-pyridin-4-yl-3,4,5,6-tetrahydro-2H-[1,2′]bipyrazinyl], the IC50 is 10 to 100 µM.
Consider `COc1ccc(OC)c(-c2cncc(N3CCN(c4ccc(OC)c(OC)c4)CC3)n2)c1` [compound 225, 4-(3,4-Dimethoxy-phenyl)-6′-(2,5-dimethoxy-phenyl)-3,4,5,6-tetrahydro-2H-[1,2′]bipyrazinyl], for which the IC50 lay in the range of 10 to 100 µM.
For `Cc1cc(C)cc(-c2cncc(N3CCN(c4ccc(F)cc4F)CC3)n2)c1` [compound 209, 4-(2,4-Difluoro-phenyl)-6′-(3,5-dimethyl-phenyl)-3,4,5,6-tetrahydro-2H-[1,2′]bipyrazinyl], the IC50 is 10 to 100 µM.
For `CCOc1ccc(-c2cncc(N3CCN(c4ccc(F)cc4)CC3)n2)cc1` [compound 271, 6′-(4-Ethoxy-phenyl)-4-(4-fluoro-phenyl)-3,4,5,6-tetrahydro-2H-[1,2′]bipyrazinyl], the IC50 was 10 to 100 µM.
`Clc1ccc(N2CCN(c3cncc(-c4ccoc4)n3)CC2)cc1` [compound 349, 4-(4-Chloro-phenyl)-6′-furan-3-yl-3,4,5,6-tetrahydro-2H-[1,2′]bipyrazinyl]: the IC50 was 10 to 100 µM.
As to `COc1cccc(-c2cncc(N3CCN(c4ccc(Cl)cc4)CC3)n2)c1` [compound 302, 4-(4-Chloro-phenyl)-6′-(3-methoxy-phenyl)-3,4,5,6-tetrahydro-2H-[1,2′]bipyrazinyl], the IC50 is 1 to 10 µM.

Staying with this assay, now noted: inhibition of UL 97 kinase activity; class by IC50 / % inhibition at 10 or 100 μM; read-out: Activity Class [A, B, C].
With `CN(C)c1cccc(-c2cncc(N3CCN(c4ccncc4)CC3)n2)c1` [compound 16, Dimethyl-[3-(4-pyridin-4-yl-3,4,5,6-tetrahydro-2H-[1,2′]bipyrazinyl-6′-yl)-phenyl]-amine], the IC50 is 10 to 100 µM.
Consider `Cc1ccc(-c2cncc(NCc3ccco3)n2)cc1C` [compound 51, [6-(3,4-Dimethyl-phenyl)-pyrazin-2-yl]-furan-2-ylmethyl-amine], for which the IC50 fell in the range of 10 to 100 µM.
On to `COc1cccc(-c2cncc(N3CCN(c4ccccc4)CC3)n2)c1` [compound 110, 6′-(3-Methoxy-phenyl)-4-phenyl-3,4,5,6-tetrahydro-2H-[1,2′]bipyrazinyl], for which the IC50 was in the range of 1 to 10 µM.
For `COc1ccc(N2CCN(c3cncc(-c4ccc(Oc5ccccc5)cc4)n3)CC2)cc1OC` [compound 168, 4-(3,4-Dimethoxy-phenyl)-6′-(4-phenoxy-phenyl)-3,4,5-6-tetrahydro-2H-[1,2′]bipyrazinyl], the IC50 lay within 10 to 100 µM.
In the case of `COc1ccccc1N1CCN(c2cncc(-c3ccc(N(C)C)cc3)n2)CC1` [compound 186, {4-[4-(2-Methoxy-phenyl)-3,4,5,6-tetrahydro-2H-[1,2′]bipyrazinyl-6′-yl]-phenyl}-dimethyl-amine], the IC50 lay within 10 to 100 µM.
On to `c1ccc(N2CCN(c3cncc(-c4ccoc4)n3)CC2)cc1` [compound 118, 6′-Furan-3-yl-4-phenyl-3,4,5,6-tetrahydro-2H-[1,2′]bipyrazinyl], for which the IC50 lay within 1 to 10 µM.

The record behind these values is US20080194574A1, “Pyrazine Derivatives As Effective Compounds Against Infectious Diseases” (AXXIMA PHARMACEUTICALS AG, priority 2003, published 2008).
